Reference: patent US20130252916A1, “ORAMUCOSAL PHARMACEUTICAL DOSAGE FORM” (UNIVERSITY OF THE WITWATERSRAND, JOHANNESBURG, priority 2005, published 2013)

Assays:
[1] = Windholz et al., 1976; cited from earlier work
[2] = solubility and dissolution of diluents in water; format: physicochemical; details: lactose compared with mannitol

| rate of dissolution [2] | SMILES | solubility (amount of cold water needed to dissolve) [1] |
| --- | --- | --- |
|  | OC[C@@H](O)[C@@H](O)[C@H](O)[C@H](O)CO [mannitol] | 5.5 mL |
| slower rate than mannitol | OC[C@H]1O[C@@H](O[C@H]2[C@H](O)[C@@H](O)C(O)O[C@@H]2CO)[C@H](O)[C@@H](O)[C@H]1O (some centres unmarked) [lactose] |  |
